Source: ChEMBL document CHEMBL1139811 (Bioorg Med Chem Lett, 2007)

biological target: T1, Mycobacterial beta-ketoacyl-[acyl-carrier-protein] synthase III (Mycobacterium tuberculosis, UniProt P9WNG3); assay: Inhibition of Mycobacterium tuberculosis FabH
T1 sequence (P9WNG3 whole entry): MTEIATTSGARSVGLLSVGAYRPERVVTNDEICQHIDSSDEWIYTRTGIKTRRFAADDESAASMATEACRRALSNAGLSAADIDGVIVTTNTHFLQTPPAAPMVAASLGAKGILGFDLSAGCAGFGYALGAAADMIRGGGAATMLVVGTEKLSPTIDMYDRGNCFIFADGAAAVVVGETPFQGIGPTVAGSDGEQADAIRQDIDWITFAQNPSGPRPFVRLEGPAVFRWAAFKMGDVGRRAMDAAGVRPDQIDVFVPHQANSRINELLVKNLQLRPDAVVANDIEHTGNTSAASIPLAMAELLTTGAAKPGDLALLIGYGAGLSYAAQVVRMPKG

Row | SMILES | IC50 [µM]
1 | CC1=C(O)C(C)(Cc2ccc(C(=O)c3ccccc3)cc2)SC1=O (stereo not given) | 283
2 | CC1=C(O)C(C)(Cc2ccc(-c3ccc(C(N)=O)cc3)cc2)SC1=O (stereo not given) | 4
3 | CC1=C(O)C(C)(Cc2ccc(-c3cccc(Cl)c3)cc2)SC1=O (stereo not given) | 156
4 | CC1=C(O)C(C)(Cc2ccc(Oc3ccccc3)cc2)SC1=O (stereo not given) | 15
5 | CC1=C(O)C(C)(Cc2ccc(-c3ccc(C(=O)O)cc3)cc2)SC1=O (stereo not given) | 7
6 | CC(=O)c1cccc(-c2ccc(CC3(C)SC(=O)C(C)=C3O)cc2)c1 (stereo not given) | 150
7 | CC1=C(O)C(C)(Cc2ccc(-c3ccc(C)s3)cc2)SC1=O (stereo not given) | 86
8 | CC(=O)c1ccc(-c2ccc(CC3(C)SC(=O)C(C)=C3O)cc2)cc1 (stereo not given) | 54
9 | CC1=C(O)C(C)(Cc2ccc(-c3ccc(F)cc3)cc2)SC1=O (stereo not given) | 105
10 | CC1=C(O)C(C)(Cc2ccc(-c3cc(F)cc(F)c3)cc2)SC1=O (stereo not given) | 135
11 | CC1=C(O)C(C)(Cc2ccc(-c3ccc(Cl)cc3)cc2)SC1=O (stereo not given) | 130
12 | CC1=C(O)C(C)(Cc2ccc(-c3ccc(-c4ccccc4)cc3)cc2)SC1=O (stereo not given) | 68
13 | CC(=O)c1ccc(-c2ccc(CC3(C)SC(=O)C(C)=C3O)cc2)s1 (stereo not given) | 200
14 | CC1=C(O)C(C)(Cc2ccc(-c3ccc(F)c(F)c3)cc2)SC1=O (stereo not given) | 207
15 | COC(=O)c1ccc(-c2ccc(CC3(C)SC(=O)C(C)=C3O)cc2)cc1 (stereo not given) | 3
